These results are taken from patent US11814367B2, “Inhibitors of glycogen synthase 1 (GYS1) and methods of use thereof” (Maze Therapeutics, Inc., priority 2021, dated 2023).

Assay [1] has as its target hGYS1 enzyme (recombinant hGYS1/GN1 protein) (Homo sapiens (Human), UniProt P13807). Put plainly: GYS1 coupled enzyme assay (PK/LDH). Type of assay: biochemical. Particulars: hGYS1/GN1 50 nM, UDP-Glucose 0.8 mM, G6P 1 mM; geometric mean of at least 2 runs.
Assay [2] addresses hGYS2 enzyme (recombinant hGYS2/GN1 protein) (Homo sapiens (Human), UniProt P54840). Briefly: GYS2 coupled enzyme assay (PK/LDH). Conditions: geometric mean of at least 2 assay runs on separate days, read-out: Avg_IC50. It is filed as biochemical. In short, it runs like this: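 Continuous PK/LDH-coupled readout of NADH loss at 340 nm over 10 min, with 200 nM hGYS2/GN1 and 2 mM each of UDP-glucose, glucose-6-phosphate and PEP, in 50 mM Tris pH 7.5 with 0.2% glycogen and 2.5% DMSO. Slopes were normalized to controls and IC50s fit to a Hill curve from duplicates.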

The subject of assay [3] is hGYS1 enzyme / glycogen synthesis in HeLa cells. Put plainly: GYS1 cell based assay (glycogen synthesis, Glucose-glo). Particulars: 24 h incubation, 20 mM glucose, geometric mean of at least 2 runs. Details: species or system human. An outline of the steps: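 HeLa cells starved 24 h in medium containing only 1× Glutamax were plated onto compound in medium with 20 mM glucose (1% DMSO final) for 24 h, 37 °C, 5% CO2. Acid lysates were Tris-quenched, glucoamylase-digested (pH 5.3, 1 h, 37 °C) and read by Glucose-glo luminescence. IC50 came from Hill fits, as geometric mean of ≥2 runs.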

Chain of hGYS1 enzyme (recombinant hGYS1/GN1 protein) (P13807 whole entry): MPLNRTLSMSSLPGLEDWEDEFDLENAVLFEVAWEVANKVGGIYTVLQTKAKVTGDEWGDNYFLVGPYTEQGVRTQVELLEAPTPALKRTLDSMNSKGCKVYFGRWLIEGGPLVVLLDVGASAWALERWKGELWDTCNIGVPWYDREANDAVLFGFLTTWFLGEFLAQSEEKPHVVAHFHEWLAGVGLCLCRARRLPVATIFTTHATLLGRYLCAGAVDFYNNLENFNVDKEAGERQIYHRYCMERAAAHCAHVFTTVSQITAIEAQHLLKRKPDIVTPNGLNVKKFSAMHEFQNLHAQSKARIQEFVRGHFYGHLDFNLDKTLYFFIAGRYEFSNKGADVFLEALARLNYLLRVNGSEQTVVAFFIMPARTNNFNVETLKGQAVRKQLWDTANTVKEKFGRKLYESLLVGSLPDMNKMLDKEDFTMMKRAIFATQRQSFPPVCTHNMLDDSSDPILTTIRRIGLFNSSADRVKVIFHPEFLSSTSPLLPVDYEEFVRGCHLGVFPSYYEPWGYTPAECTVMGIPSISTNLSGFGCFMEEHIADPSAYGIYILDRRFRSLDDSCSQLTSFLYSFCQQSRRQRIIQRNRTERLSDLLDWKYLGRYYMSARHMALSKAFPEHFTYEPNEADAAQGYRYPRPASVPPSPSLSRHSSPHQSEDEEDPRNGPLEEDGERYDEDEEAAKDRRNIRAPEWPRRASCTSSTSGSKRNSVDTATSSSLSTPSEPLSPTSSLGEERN
Chain of hGYS1 enzyme (recombinant hGYS1/GN1 protein) (P46976 whole entry partner): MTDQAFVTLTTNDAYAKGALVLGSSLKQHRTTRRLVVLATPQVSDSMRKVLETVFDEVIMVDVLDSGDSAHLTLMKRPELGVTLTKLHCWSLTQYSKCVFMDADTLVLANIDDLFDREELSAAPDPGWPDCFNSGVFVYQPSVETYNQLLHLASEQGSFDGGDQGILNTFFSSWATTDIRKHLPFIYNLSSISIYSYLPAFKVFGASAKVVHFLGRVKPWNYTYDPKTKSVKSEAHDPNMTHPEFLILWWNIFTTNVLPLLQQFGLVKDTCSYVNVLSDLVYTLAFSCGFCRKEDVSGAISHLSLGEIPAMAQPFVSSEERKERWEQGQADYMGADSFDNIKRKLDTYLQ
Chain of hGYS2 enzyme (recombinant hGYS2/GN1 protein) (P54840 whole entry): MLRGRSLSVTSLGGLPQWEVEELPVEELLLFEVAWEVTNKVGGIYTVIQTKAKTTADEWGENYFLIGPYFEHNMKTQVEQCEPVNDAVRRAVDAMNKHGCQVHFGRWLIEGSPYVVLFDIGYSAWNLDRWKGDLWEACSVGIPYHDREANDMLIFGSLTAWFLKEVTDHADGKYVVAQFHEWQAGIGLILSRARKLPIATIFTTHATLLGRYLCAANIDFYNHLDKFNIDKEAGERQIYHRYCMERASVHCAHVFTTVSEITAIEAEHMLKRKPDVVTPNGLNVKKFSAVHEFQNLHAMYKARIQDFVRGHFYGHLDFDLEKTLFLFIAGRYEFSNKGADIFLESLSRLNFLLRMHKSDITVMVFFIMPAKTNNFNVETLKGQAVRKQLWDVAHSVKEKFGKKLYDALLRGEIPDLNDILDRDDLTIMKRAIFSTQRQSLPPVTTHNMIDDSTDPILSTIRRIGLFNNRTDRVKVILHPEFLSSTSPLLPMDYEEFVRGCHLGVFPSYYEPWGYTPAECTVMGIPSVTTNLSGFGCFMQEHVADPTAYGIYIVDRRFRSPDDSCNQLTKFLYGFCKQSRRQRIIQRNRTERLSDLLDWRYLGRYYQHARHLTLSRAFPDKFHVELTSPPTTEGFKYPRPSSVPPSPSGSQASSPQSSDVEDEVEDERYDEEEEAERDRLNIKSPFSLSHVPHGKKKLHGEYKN
Chain of hGYS2 enzyme (recombinant hGYS2/GN1 protein) (P46976 whole entry partner): as the sequence (P46976 whole entry partner) above

On to `CCn1cccc(CC(=O)N2C[C@H](F)C[C@H]2C(=O)N[C@@H](c2ccccc2)c2ccc(C(C)C)c(F)n2)c1=O` [Compound 795, (2S,4R)-1-[2-(1-ethyl-2-oxo-1,2-dihydropyridin-3-yl)acetyl]-4-fluoro-N-[(S)-[6-fluoro-5-(propan-2-yl)pyridin-2-yl](phenyl)methyl] pyrrolidine-2-carboxamide], for which the IC50 in assay [1] was 11 nM; in assay [2] it was above 100000 nM; in assay [3] (Homo sapiens, HeLa, 24 h), 240 nM.
For the compound `Cc1cn(CC(=O)N2C[C@H](F)C[C@H]2C(=O)N[C@@H](c2ccccc2)c2ccc(C3CC(F)(F)C3)c(F)n2)c(=O)[nH]c1=O` [Compound 506, (2S,4R)-N-[(S)-[5-(3,3-difluorocyclobutyl)-6-fluoropyridin-2-yl](phenyl)methyl]-4-fluoro-1-[2-(5-methyl-2,4-dioxo-1,2,3,4-tetrahydropyrimidin-1-yl)acetyl] pyrrolidine-2-carboxamide], the IC50 in assay [1] was 4 nM; in assay [2], above 100000 nM; in assay [3] (Homo sapiens, HeLa, 24 h), 370 nM.
In the same order, the values of `CN1C(=O)C(CC(=O)N2C[C@H](F)C[C@H]2C(=O)N[C@@H](c2ccccc2)c2ccc(C3CC3)c(F)c2)c2ccccc21` (stereo partly drawn) [Compound 455, (2S,4R)-N-[(S)-(4-cyclopropyl-3-fluorophenyl)(phenyl)methyl]-4-fluoro-1-[2-(1-methyl-2-oxo-2,3-dihydro-1H-indol-3-yl)acetyl]pyrrolidine-2-carboxamide] are 291 nM, above 100000 nM and 3620 nM.
Turning to `CC(C)c1ccc([C@@H](NC(=O)[C@@H]2C[C@@H](F)CN2C(=O)Cc2cnn[nH]2)c2ccccc2)cc1Cl` [Compound 672, (2S,4R)-N-[(S)-[3-chloro-4-(propan-2-yl)phenyl](phenyl)methyl]-4-fluoro-1-[2-(1H-1,2,3-triazol-5-yl)acetyl]pyrrolidine-2-carboxamide], the IC50 in assay [1] was 82 nM; in assay [2], above 100000 nM; in assay [3] (Homo sapiens, HeLa, 24 h), 1220 nM.
With `CC(C)c1ccc([C@@H](NC(=O)[C@@H]2C[C@@H](F)CN2C(=O)Cn2cnc3ccccc32)c2ccccc2)nc1F` [Compound 389, (2S,4R)-1-[2-(1H-1,3-benzodiazol-1-yl)acetyl]-4-fluoro-N-[(S)-[6-fluoro-5-(propan-2-yl)pyridin-2-yl](phenyl)methyl] pyrrolidine-2-carboxamide], the IC50 is 4 nM in assay [1]; above 90300 nM in assay [2]; 50 nM in assay [3] (Homo sapiens, HeLa, 24 h).
As for `CC(C)c1ccc([C@@H](NC(=O)[C@@H]2C[C@@H](F)CN2C(=O)Cc2ccc3ncccc3c2)c2ccccc2)cc1F` [Compound 357, (2S,4R)-4-fluoro-N-[(S)-[3-fluoro-4-(propan-2-yl)phenyl](phenyl)methyl]-1-[2-(quinolin-6-yl)acetyl]pyrrolidine-2-carboxamide], the IC50 in assay [1] is 21 nM; in assay [2] it was above 100000 nM; in assay [3] (Homo sapiens, HeLa, 24 h), 220 nM.
In the same order, the values of `CC(C)c1ccc([C@@H](NC(=O)[C@@H]2C[C@@H](F)CN2C(=O)Cc2cccnc2)c2ccccc2)cc1F` [Compound 348, (2S,4R)-4-fluoro-N-[(S)-[3-fluoro-4-(propan-2-yl)phenyl](phenyl)methyl]-1-[2-(pyridin-3-yl)acetyl]pyrrolidine-2-carboxamide] are 24 nM, above 100000 nM and 270 nM.
In the same order, the values of `O=C(N[C@@H](c1ccccc1)c1ccc(C2CC2)c(F)c1)[C@@H]1C[C@@H](F)CN1C(=O)COC(=O)N1CCN(CC(F)(F)F)CC1` [Compound 446, 2-[(2S,4R)-2-{[(S)-(4-cyclopropyl-3-fluorophenyl)(phenyl)methyl]carbamoyl}-4-fluoropyrrolidin-1-yl]-2-oxoethyl 4-(2,2,2-trifluoroethyl)piperazine-1-carboxylate] are 98 nM, above 100000 nM and 2190 nM.
In the case of `CC(C(=O)N1C[C@H](F)C[C@H]1C(=O)N[C@@H](c1ccccc1)c1ccc(C2(C)CC2)c(F)n1)n1cnc2ccccc21` (single isomer, unassigned) [Compound 586, (2S,4R)-1-((S) or (R)-2-(1H-benzo[d]imidazol-1-yl)propanoyl)-4-fluoro-N—((S)-(6-fluoro-5-(1-methylcyclopropyl)pyridin-2-yl)(phenyl)methyl)pyrrolidine-2-carboxamide], the results for the IC50 in assay [1], in assay [2] and in assay [3] were 10 nM, above 100000 nM and 150 nM, respectively.
Regarding `Cc1cn(CC(=O)N2C[C@H](F)C[C@H]2C(=O)N[C@@H](c2ccccc2)c2ccc(C(C)C)cn2)c(=O)[nH]c1=O` [Compound 249, (2S,4R)-4-fluoro-1-[2-(5-methyl-2,4-dioxo-1,2,3,4-tetrahydropyrimidin-1-yl)acetyl]-N-[(S)-phenyl[5-(propan-2-yl)pyridin-2-yl]methyl]pyrrolidine-2-carboxamide], the IC50 in assay [1] was 21 nM; in assay [2], above 100000 nM; in assay [3] (Homo sapiens, HeLa, 24 h) it was 1150 nM.
In the same order, the values of `CC(C)c1ccc([C@@H](NC(=O)[C@@H]2C[C@@H](F)CN2C(=O)Cc2ccno2)c2ccccc2)cc1F` [Compound 338, (2S,4R)-4-fluoro-N-[(S)-[3-fluoro-4-(propan-2-yl)phenyl](phenyl)methyl]-1-[2-(1,2-oxazol-5-yl)acetyl]pyrrolidine-2-carboxamide] are 34 nM, above 100000 nM and 390 nM.
In the same order, the values of `CC1(c2ccc([C@@H](NC(=O)[C@@H]3C[C@@H](F)CN3C(=O)Cc3n[nH]c4ccccc34)c3ccccc3)cc2F)CC1` [Compound 571, (2S,4R)-4-fluoro-N-[(S)-[3-fluoro-4-(1-methylcyclopropyl)phenyl](phenyl)methyl]-1-[2-(1H-indazol-3-yl)acetyl]pyrrolidine-2-carboxamide] are 75 nM, above 100000 nM and 930 nM.
In the same order, the values of `Cc1cc(C(NC(=O)[C@@H]2C[C@@H](F)CN2C(=O)Cc2cnn[nH]2)c2ccccc2)ncc1C(C)C` (single isomer, unassigned) [Compound 604, (2S,4R)-4-fluoro-N-[(S) or (R)-[4-methyl-5-(propan-2-yl)pyridin-2-yl](phenyl)methyl]-1-[2-(1H-1,2,3-triazol-5-yl)acetyl]pyrrolidine-2-carboxamide] are 176 nM, above 100000 nM and 1590 nM.
As to `CC(C)c1ccc([C@@H](NC(=O)[C@@H]2C[C@@H](F)CN2C(=O)CNC(=O)N2CCNCC2)c2ccccc2)cc1F` [Compound 365, N-{2-[(2S,4R)-4-fluoro-2-{[(S)-[3-fluoro-4-(propan-2-yl)phenyl](phenyl)methyl]carbamoyl}pyrrolidin-1-yl]-2-oxoethyl}piperazine-1-carboxamide], the IC50 in assay [1] is 7 nM; in assay [2], above 100000 nM; in assay [3] (Homo sapiens, HeLa, 24 h) it was 1190 nM.
Turning to `CC(C)c1ccc([C@@H](NC(=O)[C@@H]2C[C@@H](F)CN2C(=O)CNC(=O)N2CC(F)(F)C2)c2ccccc2)nc1F` [Compound 410, (2S,4R)-1-{2-[(3,3-difluoroazetidine-1-carbonyl)amino]acetyl}-4-fluoro-N-[(S)-[6-fluoro-5-(propan-2-yl)pyridin-2-yl](phenyl)methyl]pyrrolidine-2-carboxamide], the IC50 is 8 nM in assay [1]; above 100000 nM in assay [2]; 130 nM in assay [3] (Homo sapiens, HeLa, 24 h).
Consider `O=C(N[C@@H](c1ccccc1)c1ccc(C2CC2)c(F)c1)[C@@H]1C[C@@H](F)CN1C(=O)Cn1cnnc1` [Compound 481, (2S,4R)-N-[(S)-(4-cyclopropyl-3-fluorophenyl)(phenyl)methyl]-4-fluoro-1-[2-(4H-1,2,4-triazol-4-yl)acetyl]pyrrolidine-2-carboxamide], for which the IC50 in assay [1] is 247 nM; in assay [2], above 100000 nM; in assay [3] (Homo sapiens, HeLa, 24 h) it was 7770 nM.
On to `CC(C)c1ccc([C@@H](NC(=O)[C@@H]2C[C@@H](F)CN2C(=O)Cn2cnnn2)c2ccccc2)cc1F` [Compound 330, (2S,4R)-4-fluoro-N-[(S)-[3-fluoro-4-(propan-2-yl)phenyl](phenyl)methyl]-1-[2-(1H-1,2,3,4-tetrazol-1-yl)acetyl]pyrrolidine-2-carboxamide], for which the IC50 was 21 nM in assay [1]; above 100000 nM in assay [2]; 560 nM in assay [3] (Homo sapiens, HeLa, 24 h).
In the same order, the values of `CC(C)c1ccc([C@@H](NC(=O)[C@@H]2C[C@@H](F)CN2C(=O)Cc2cccc3ncccc23)c2ccccc2)nc1` [Compound 247, (2S,4R)-4-fluoro-N-[(S)-phenyl[5-(propan-2-yl)pyridin-2-yl]methyl]-1-[2-(quinolin-5-yl)acetyl]pyrrolidine-2-carboxamide] are 10 nM, above 100000 nM and 180 nM.
In the same order, the values of `CN1CCN(C(=O)OCC(=O)N2C[C@H](F)C[C@H]2C(=O)N[C@@H](c2ccccc2)c2ccc(C3(C)CC3)c(F)c2)CC1` [Compound 583, 2-[(2S,4R)-4-fluoro-2-{[(S)-[3-fluoro-4-(1-methylcyclopropyl)phenyl](phenyl)methyl]carbamoyl}pyrrolidin-1-yl]-2-oxoethyl 4-methylpiperazine-1-carboxylate] are 105 nM, above 100000 nM and 1640 nM.
